Data on 56 compounds can be found in US11795147B2, “Modulators of complex I” (Boehringer Ingelheim International GmbH, priority 2019, dated 2023).

In general, IC50 refers to the concentration needed to halve the response being measured.

Structures are written as SMILES.

The assay deals with Complex I. Kind of assay: Assay A: Determination of Complex I mediated ROS-inhibition (CI). Type of assay: biochemical. The note with it: read-out: CI IC50; ROS generation by Complex I purified from bovine heart, Amplex Red/horse radish peroxidase readout, 8 point concentration-response.
As to `CC1COC/C(=C2/C(=O)N(C3CCOCC3)c3ccc(N4C(C)CCC4C)cc32)N1` (centres unmarked) [Compound 93], the IC50 turned out to be 24 nM.

For `CNc1ccc2c(c1)/C(=C1\CCCN1)C(=O)N2C1CCOCC1` [Compound 43], the 50% inhibitory concentration (IC50) is 11 nM. The figure for `CC(C)Nc1ccc2c(c1)/C(=C1\CCCN1C)C(=O)N2C1CCOCC1` [Compound 48] is 122 nM; for `CN(C)c1ccc2c(c1)C(=C1NCC3(CCCCC3)CN1)C(=O)N2C` [Compound 104] it is 704 nM. Take `CC1CCC(C)N1c1ccc2c(c1)/C(=C1\CCOCCN1)C(=O)N2C1CCOCC1` (centres unmarked) [Compound 29]: the IC50 amounted to 132 nM. The figure for `CCC(C)Nc1ccc2c(c1)/C(=C1\COCCN1)C(=O)N2C(C)C` (centres unmarked) [Compound 54] is 203 nM. Turning to `CC(C)N1C(=O)/C(=C2/COCCN2)c2cc(NC3CCOCC3F)ccc21` (centres unmarked) [Compound 73], the IC50 worked out at 66 nM. For `O=C1/C(=C2/COCCN2)c2cc(NCC3CCOC3)ccc2N1C1CCOCC1` (centres unmarked) [Compound 151], the IC50 was 232 nM. Then `CN(C)c1ccc2c(c1)/C(=C1\CCCN1)C(=O)N2C` [Compound 1], with 60 nM. Turning to `CC(=O)N1CCN/C(=C2\C(=O)N(C(C)C)c3ccc(NC(C)C)cc32)C1` [Compound 159], the 50% inhibitory concentration (IC50) came out at 120 nM. Consider `O=C1/C(=C2/COCCN2)c2cc(NC3CCOC3)ccc2N1C1CCOC1` (centres unmarked) [Compound 168], for which the IC50 is 41 nM. Take `CC(C)N1C(=O)/C(=C2/COCCN2)c2cc(NC3COC3)ccc21` [Compound 98]: the IC50 amounted to 187 nM.

For the compound `CC(C)N1C(=O)C(=C2CCOCC2)c2cc(NC3CCC3)ccc21` [Compound 25], the 50% inhibitory concentration (IC50) turned out to be 707 nM. Consider `CN1C(=O)/C(=C2/CCOCCN2)c2cc(N3CCCC3)ccc21` [Compound 107], for which the IC50 was 299 nM. `COC1COCCC1Nc1ccc2c(c1)/C(=C1\COCCN1)C(=O)N2C(C)C` (centres unmarked) [Compound 16]: the IC50 was found to be 313 nM. As to `O=C1/C(=C2/COCCN2)c2cc(NC3CCCC3)ccc2N1C1COC1` [Compound 65], the IC50 worked out at 194 nM. As to `CC(=O)N1CCC2(CC1)CN/C(=C1\C(=O)N(C(C)C)c3ccc(NC(C)C)cc31)CO2` [Compound 34], the IC50 was determined as 48 nM. In the case of `CC(Nc1ccc2c(c1)/C(=C1\COCCN1)C(=O)N2C(C)C)c1ccncc1` (centres unmarked) [Compound 143], the IC50 was 79 nM. Consider `COCC(C)Nc1ccc2c(c1)/C(=C1\COCCN1)C(=O)N2C1CCOCC1` (centres unmarked) [Compound 99], for which the IC50 was found to be 451 nM. The figure for `COCC(C)N1C(=O)/C(=C2/COCCN2)c2cc(N3CCCC3)ccc21` (centres unmarked) [Compound 68] is 624 nM; for `O=C1/C(=C2/COCCN2)c2cc(NCc3cc[nH]n3)ccc2N1C1CCOCC1` [Compound 21] it is 108 nM. For `CC1CCC(C)N1c1ccc2c(c1)/C(=C1\COCCN1)C(=O)N2C1CCOC1` (centres unmarked) [Compound 162], the IC50 is 464 nM. Regarding `CC(C)N1C(=O)/C(=C2/COCCN2)c2cc(NC3CCOCC3)ccc21` [Compound 36], the IC50 amounted to 150 nM.

With `CC(Nc1ccc2c(c1)/C(=C1\COCCN1)C(=O)N2C1CCOCC1)c1cccnc1` (centres unmarked) [Compound 100], the IC50 was 34 nM. Take `CC(C)C(C)Nc1ccc2c(c1)/C(=C1\COCCN1)C(=O)N2C(C)C` (centres unmarked) [Compound 95]: the half-inhibitory concentration (IC50) was found to be 151 nM. The figure for `CC(C)N1C(=O)/C(=C2/CCCN2C)c2cc(NC3CCC3)ccc21` [Compound 161] is 957 nM. Then `O=C1/C(=C2/COCCN2)c2cc(N3CCCCC3)ccc2N1C1CCOCC1` [Compound 86], with 69 nM. As to `CN(C)c1ccc2c(c1)/C(=C1/NCCN1c1ccccc1)C(=O)N2C` [Compound 106], the IC50 amounted to 327 nM.

As to `CC(C)N1C(=O)/C(=C2/COCCN2)c2cc(N3CCCC3)ccc21` [Compound 130], the concentration for half-maximal inhibition (IC50) is 877 nM. Take `CC(C)C(C)Nc1ccc2c(c1)/C(=C1\COCCN1)C(=O)N2C1COCCOC1` (centres unmarked) [Compound 27]: the IC50 was 162 nM. Take `O=C1/C(=C2/CCOCCN2)c2cc(NC3CCOC3)ccc2N1C1CCOCC1` (centres unmarked) [Compound 140]: the IC50 was 84 nM. Then `O=C1/C(=C2/COCCN2)c2cc(NC3CCOCC3)ccc2N1C1CCOC1` (centres unmarked) [Compound 32], with 31 nM.

As for `CN(C)c1ccc2c(c1)/C(=C1\CCN(C(=O)OCc3ccccc3)CCN1)C(=O)N2C` [Compound 108], the IC50 came out at 118 nM.

As for `CC(C)N1C(=O)/C(=C2/COCCN2)c2cc(NC3CCN(C)CC3)ccc21` [Compound 38], the 50% inhibitory concentration (IC50) turned out to be 51 nM. Consider `CC(C)CNc1ccc2c(c1)/C(=C1\COCCN1)C(=O)N2C(C)C` [Compound 173], for which the IC50 worked out at 367 nM. Regarding `CC1CCC(C)N1c1ccc2c(c1)/C(=C1\COCCN1)C(=O)N2C` (centres unmarked) [Compound 84], the IC50 was found to be 333 nM.

Turning to `CC(C)Nc1ccc2c(c1)/C(=C1\COCCN1)C(=O)N2C` [Compound 63], the concentration for half-maximal inhibition (IC50) worked out at 22 nM. The figure for `CC(C)N1C(=O)C(=C2CCOCC2)c2cc(N3CCCC3)ccc21` [Compound 7] is 350 nM.

Turning to `CC(C)N1CCN/C(=C2\C(=O)N(C)c3ccc(N4CCCC4)cc32)C1` [Compound 23], the IC50 came to 137 nM. Then `CC(Nc1ccc2c(c1)/C(=C1\COCCN1)C(=O)N2C(C)C)C1CCCC1` (centres unmarked) [Compound 56], with 159 nM; and `CC(C)N1C(=O)/C(=C2/COCCN2)c2cc(NCC(C)(C)C)ccc21` [Compound 145], with 183 nM; and `CC(C)Nc1ccc2c(c1)/C(=C1\CCN(C(C)C)CCN1)C(=O)N2C1CCOCC1` [Compound 164], with 172 nM. The figure for `CC(Nc1ccc2c(c1)/C(=C1\COCCN1)C(=O)N2C1CCOCC1)C1CCCC1` (centres unmarked) [Compound 61] is 343 nM. Regarding `CC(C)Nc1ccc2c(c1)/C(=C1\CCOCCN1)C(=O)N2C(C)C` [Compound 82], the IC50 came to 91 nM. Then `CC(C)N1C(=O)/C(=C2/COCCN2)c2cc(NCc3cc[nH]n3)ccc21` [Compound 74], with 46 nM; and `CC(C)Nc1ccc2c(c1)/C(=C1\COCCN1)C(=O)N2[C@H]1CCN(C(C)C)C1` [Compound 31], with 81 nM; and `CC(Nc1ccc2c(c1)/C(=C1\COCCN1)C(=O)N2C(C)C)c1cccnc1` (centres unmarked) [Compound 15], with 96 nM. With `CC(Nc1ccc2c(c1)/C(=C1\COCCN1)C(=O)N2C(C)C)c1ccccn1` (centres unmarked) [Compound 71], the IC50 was 93 nM. For the compound `CC(Nc1ccc2c(c1)/C(=C1\COCCN1)C(=O)N2C(C)C)c1cnccn1` (centres unmarked) [Compound 57], the IC50 was found to be 73 nM. With `CC(Nc1ccc2c(c1)/C(=C1\COCCN1)C(=O)N2C1COC1)C1CC1` (centres unmarked) [Compound 67], the IC50 amounted to 225 nM. Consider `O=C1/C(=C2/COCCN2)c2cc(NC3CCC3)ccc2N1C1COC1` [Compound 51], for which the 50% inhibitory concentration (IC50) amounted to 135 nM. `CN(C)c1ccc2c(c1)/C(=C1\CCOCCN1)C(=O)N2C` [Compound 41]: the 50% inhibitory concentration (IC50) came out at 52 nM.

`CC(C)Nc1ccc2c(c1)/C(=C1\CCCCN1)C(=O)N2C(C)C` [Compound 133]: the IC50 was 49 nM.

For the compound `CC(Nc1ccc2c(c1)/C(=C1\COCCN1)C(=O)N2C(C)C)c1nccs1` (centres unmarked) [Compound 144], the IC50 was 49 nM.

For the compound `CC1CCC(C)N1c1ccc2c(c1)/C(=C1\COCCN1)C(=O)N2C1CCOCC1` (centres unmarked) [Compound 156], the IC50 came to 77 nM. The figure for `CC(C)N1C(=O)/C(=C2/CCCCN2)c2cc(N(C3CCC3)C3CCC3)ccc21` [Compound 113] is 106 nM.
